In the supplement of paper PMC5908809:

What was measured:
[1] = system: normal NK cells expanded with K562-aAPC; experiment: percent inhibition of viability; higher = more inhibition; conditions: 72 h, IL-2 2.5 ng/mL
Protocol: (§1)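 Drug sensitivity and resistance testing on K562-aAPC-expanded normal NK cells: 5 concentrations (10-fold steps over a 10,000-fold range), 72 h at 37 °C, viability by CellTiter-Glo normalised to DMSO and benzethonium chloride controls; DSS from the fitted curve.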

DERL-7 (IL-2 2.5 ng/mL) [2] = experiment: as above; conditions: 72 h
IMC-1 (IL-2 20 ng/mL) [3] = experiment: as above; conditions: 72 h
KAI3 (IL-2 2.5 ng/mL) [4] = experiment: as above; conditions: 72 h
KHYG-1 (IL-2 2.5 ng/mL) [5] = experiment: as above; conditions: 72 h
NK-92 (IL-2 2.5 ng/mL) [6] = experiment: as above; conditions: 72 h
NK-YS (IL-2 2.5 ng/mL) [7] = experiment: as above; conditions: 72 h
NKL (IL-2 2.5 ng/mL) [8] = experiment: as above; conditions: 72 h
SNK-6 (IL-2 2.5 ng/mL) [9] = experiment: as above; conditions: 72 h
YT (IL-2 2.5 ng/mL) [10] = experiment: as above; conditions: 72 h
[11] = system: normal primary NK cells, pool 1 (3 donors) (IL-2 2.5 ng/mL); experiment: as above; conditions: 72 h
[12] = system: normal primary NK cells, pool 1 (3 donors), resting (IL-2 0 ng/mL); experiment: as above; conditions: 72 h
[13] = system: normal primary NK cells, pool 2 (3 donors) (IL-2 2.5 ng/mL); experiment: as above; conditions: 72 h
[14] = system: normal primary NK cells, pool 3 (3 donors) (IL-2 2.5 ng/mL); experiment: as above; conditions: 72 h
[15] = system: normal NK cells expanded with K562-aAPC; experiment: drug sensitivity score (DSS) (DSS units); higher = more sensitive; extreme values may be limits of the assay; conditions: 72 h; IL-2 2.5 ng/mL
Protocol: as §1

DERL-7 (IL-2 2.5 ng/mL) [16] = experiment: as above; conditions: 72 h
IMC-1 (IL-2 20 ng/mL) [17] = experiment: as above; conditions: 72 h
KAI3 (IL-2 2.5 ng/mL) [18] = experiment: as above; conditions: 72 h
KHYG-1 (IL-2 2.5 ng/mL) [19] = experiment: as above; conditions: 72 h
NK-92 (IL-2 2.5 ng/mL) [20] = experiment: as above; conditions: 72 h
NK-YS (IL-2 2.5 ng/mL) [21] = experiment: as above; conditions: 72 h
NKL (IL-2 2.5 ng/mL) [22] = experiment: as above; conditions: 72 h
SNK-6 (IL-2 2.5 ng/mL) [23] = experiment: as above; conditions: 72 h
YT (IL-2 2.5 ng/mL) [24] = experiment: as above; conditions: 72 h
[25] = system: normal primary NK cells, pool 1 (3 donors) (IL-2 2.5 ng/mL); experiment: as above; conditions: 72 h
[26] = system: normal primary NK cells, pool 1 (3 donors), resting (IL-2 0 ng/mL); experiment: as above; conditions: 72 h
[27] = system: normal primary NK cells, pool 2 (3 donors) (IL-2 2.5 ng/mL); experiment: as above; conditions: 72 h
[28] = system: normal primary NK cells, pool 3 (3 donors) (IL-2 2.5 ng/mL); experiment: as above; conditions: 72 h

COc1cccc2c1C(=O)c1c(O)c3c(c(O)c1C2=O)C[C@@](O)(C(C)=O)C[C@@H]3O[C@H]1C[C@H](N)[C@H](O)[C@H](C)O1 [Daunorubicin] (max concentration tested 1000 nM)
percent inhibition of viability [%]
Conditions | 0.1 nM | 1 nM | 10 nM | 100 nM | 1000 nM
DERL-7 (IL-2 2.5 ng/mL) [2] | -3.3 | -4.68 | 21.2 | 92.8 | 101
IMC-1 (IL-2 20 ng/mL) [3] | -9.54 | -10.2 | 16.5 | 98.7 | 101
KAI3 (IL-2 2.5 ng/mL) [4] | -5.78 | -13.2 | 19.7 | 61.9 | 106
KHYG-1 (IL-2 2.5 ng/mL) [5] | 1.81 | -4.06 | -1.19 | 93.7 | 109
NK-92 (IL-2 2.5 ng/mL) [6] | -16.2 | -14.1 | -9.07 | 89.9 | 109
NK-YS (IL-2 2.5 ng/mL) [7] | -2.31 | -8.67 | 23.9 | 77.1 | 106
NKL (IL-2 2.5 ng/mL) [8] | -2.22 | 6.13 | 88.5 | 104 | 109
SNK-6 (IL-2 2.5 ng/mL) [9] | -12.6 | -10.6 | -5.61 | 97.8 | 94.5
YT (IL-2 2.5 ng/mL) [10] | -3.13 | -9.89 | -7.78 | 93.8 | 110
[1] | -6.49 | -5.27 | 0.18 | 77.3 | 101
[11] | -16.8 | -3.87 | 17.1 | 94.1 | 98.6
[12] | -16.4 | -27.6 | 23.2 | 91.1 | 94
[13] | -11.1 | -1.9 | 13 | 92.7 | 94.4
[14] | -11.8 | -3.78 | 7.93 | 81.6 | 99.9

Conditions | drug sensitivity score
DERL-7 (IL-2 2.5 ng/mL) [16] | 19.7
IMC-1 (IL-2 20 ng/mL) [17] | 20.7
KAI3 (IL-2 2.5 ng/mL) [18] | 14.2
KHYG-1 (IL-2 2.5 ng/mL) [19] | 16.9
NK-92 (IL-2 2.5 ng/mL) [20] | 16
NK-YS (IL-2 2.5 ng/mL) [21] | 17.3
NKL (IL-2 2.5 ng/mL) [22] | 29.4
SNK-6 (IL-2 2.5 ng/mL) [23] | 17.1
YT (IL-2 2.5 ng/mL) [24] | 16.6
[15] | 14.4
[25] | 19.6
[26] | 20.5
[27] | 19.2
[28] | 16.1

CCN(CC)C(=S)SSC(=S)N(CC)CC [Disulfiram] (max concentration tested 100000 nM)
percent inhibition of viability [%]
Conditions | 10 nM | 100 nM | 1000 nM | 10000 nM | 100000 nM
DERL-7 (IL-2 2.5 ng/mL) [2] | 4.4 | 22.1 | 97.2 | 58.3 | 100
IMC-1 (IL-2 20 ng/mL) [3] | -0.36 | 2.91 | 74.2 | 44.6 | 101
KAI3 (IL-2 2.5 ng/mL) [4] | 0.03 | -5.96 | 23.3 | 29.1 | 99.8
KHYG-1 (IL-2 2.5 ng/mL) [5] | 1.86 | 2.15 | 64.2 | 44.3 | 101
NK-92 (IL-2 2.5 ng/mL) [6] | -0.19 | -7.5 | 39.9 | 1.99 | 98.8
NK-YS (IL-2 2.5 ng/mL) [7] | 1.28 | 2.15 | 66.6 | 59.1 | 94.4
NKL (IL-2 2.5 ng/mL) [8] | 2.6 | 19.2 | 89.2 | 93.1 | 103
SNK-6 (IL-2 2.5 ng/mL) [9] | 0.42 | -19.7 | 11.4 | -24.5 | 100
YT (IL-2 2.5 ng/mL) [10] | 3.15 | 1.21 | 7.05 | 7.11 | 96.6
[1] | -4.71 | 1.75 | 94.6 | 74 | 100
[11] | 3.67 | -0.96 | 99.8 | 99.5 | 101
[12] | -2.82 | 3.62 | 97.2 | 97.5 | 101
[13] | -8.13 | 11.6 | 98.6 | 98.2 | 101
[14] | -15.5 | 1.36 | 98.2 | 99.1 | 101

Conditions | drug sensitivity score
DERL-7 (IL-2 2.5 ng/mL) [16] | 32.9
IMC-1 (IL-2 20 ng/mL) [17] | 20
KAI3 (IL-2 2.5 ng/mL) [18] | 8.84
KHYG-1 (IL-2 2.5 ng/mL) [19] | 18.2
NK-92 (IL-2 2.5 ng/mL) [20] | 5.78
NK-YS (IL-2 2.5 ng/mL) [21] | 21.3
NKL (IL-2 2.5 ng/mL) [22] | 31.1
SNK-6 (IL-2 2.5 ng/mL) [23] | 4.39
YT (IL-2 2.5 ng/mL) [24] | 6.46
[15] | 29.9
[25] | 30.3
[26] | 30.6
[27] | 32.3
[28] | 30.4

CNC(=O)c1ccc(N2C(=S)N(c3ccc(C#N)c(C(F)(F)F)c3)C(=O)C2(C)C)cc1F [Enzalutamide] (max concentration tested 10000 nM)
percent inhibition of viability [%]
Conditions | 1 nM | 10 nM | 100 nM | 1000 nM | 10000 nM
DERL-7 (IL-2 2.5 ng/mL) [2] | -1.7 | -4.09 | -9.3 | -2.76 | -5
IMC-1 (IL-2 20 ng/mL) [3] | -3.38 | 0.92 | -2.2 | -1.9 | 18.3
KAI3 (IL-2 2.5 ng/mL) [4] | -6.43 | -7.59 | -3.84 | -14.2 | -5.9
KHYG-1 (IL-2 2.5 ng/mL) [5] | -6.93 | -4.23 | -3.55 | -6.97 | 4.84
NK-92 (IL-2 2.5 ng/mL) [6] | 1.65 | -8.18 | -6.81 | -3.14 | 20.8
NK-YS (IL-2 2.5 ng/mL) [7] | -6.5 | -3.69 | -3.22 | -8.67 | 5.9
NKL (IL-2 2.5 ng/mL) [8] | -2.17 | -13.2 | -14 | -9.34 | 1.3
SNK-6 (IL-2 2.5 ng/mL) [9] | 12.3 | 20.8 | -9.97 | 42.2 | 17.6
YT (IL-2 2.5 ng/mL) [10] | -1.41 | -1.46 | -3.16 | -4.82 | 3.56
[1] | -2.32 | -10.8 | -8.2 | -6.11 | -8.96
[11] | -3.9 | 0.9 | -0.41 | -2.29 | 4.21
[12] | 7.62 | -0.58 | -1.62 | 6.1 | 31.6
[13] | -10.2 | -3.87 | -13.1 | -6.47 | 3.77
[14] | -14.6 | -16.8 | -6.74 | -9.3 | -4.81

Conditions | drug sensitivity score
DERL-7 (IL-2 2.5 ng/mL) [16] | 0
IMC-1 (IL-2 20 ng/mL) [17] | 0.37
KAI3 (IL-2 2.5 ng/mL) [18] | 0
KHYG-1 (IL-2 2.5 ng/mL) [19] | 0
NK-92 (IL-2 2.5 ng/mL) [20] | 0.49
NK-YS (IL-2 2.5 ng/mL) [21] | 0
NKL (IL-2 2.5 ng/mL) [22] | 0
SNK-6 (IL-2 2.5 ng/mL) [23] | 4.37
YT (IL-2 2.5 ng/mL) [24] | 0
[15] | 0
[25] | 0
[26] | 2.39
[27] | 0
[28] | 0
